Measured values from patent publication US11590071B2, “Injectable drug delivery implant composition and method of use thereof” (King Abdulaziz University, priority 2021, dated 2023).
Structures can show the parent of a compound that is named as a salt.

Experiments:
[1] = In vivo drug release study (plasma DMF by HPLC after SC injection); set-up: species or system Albino Wistar rats; settings: rats, S.C.
Description: In vivo drug release study was also performed. Albino Wistar rats (275-300 g) were used in the study. Sterile polypropylene cages with paddy husk were used for the housing of experimental animals. Standard food pellets were given to the animals with water ad libitum. Uses of experimental animal were approved by the IAEC (JSSCP, S. S. Nagar, Mysore, India Code No: 132/2013) and for all the purpose of animal welfare the CPCSEA guidelines were followed.
The experimental animals were separated into groups of three and each group consisted of three animals. […] For injecting 0.5 mL of injectable gel, a syringe of 1 mL with the needle of 26-gauge was used.
For the In-vivo detection of Dimethyl Fumarate, an aliquot of blood was drawn from retro orbital sinus of each rat at specified blood collection times. 1.5 mL aliquot of blood from retro orbital sinus was collected in an EDTA coated Eppendorf tube. The tubes were centrifuged at 4° C. and 8000 rpm for 10 min to collect plasma. Plasma was separated into a separate eppendorf tube. Until the screening or assay of plasma samples by using HPLC, the sample was stored at −20° C.
All animals remained in good health throughout the acclimatization and study periods. The cumulative (±SD) plasma concentrations of DMF at the times of sample collection after SC are plotted in FIG. 8. Drug concentration was determined by using HPLC method. […]

rat subcutaneous tissue = experiment: Tissue biocompatibility study of DMF ISFI system (physical inspection for inflammation); assay type: in vivo, rats; settings: SC injection; visual observation
Description: Tissue biocompatibility study of DMF ISFI system was performed. Mice were separated into three groups i.e., positive control group, test group, negative control group and each group consist of three animals to assess the DMF and ISFI biocompatibility. All of the three groups received different drugs like first group received phosphate buffer of pH 7.4 dispersed DMF, test group was given both drug DMF with the ISFI and the last group were given only ISFI. For all physical signs of inflammation, all the animals were visually observed. Produces responses in experimental animals were graded as 0 for normal, + for mild symptoms, ++ for moderate and +++ used for the severe symptoms. After injecting the drugs in animals, one mouse per group was sacrificed at the interval of 3rd day, 7th day and 14th days. The adjacent tissues were excised and fixed in 10% formalin tamped with phosphate buffer. The tissue was under the observation of optical microscope after the hematoxylin and eosin staining process for the changes in acute inflammatory responses, fibrosis and foreign body reaction. (Anderson and Langone, 1999 and Park and Park, 1999).

With COC(=O)/C=C/C(=O)OC [DMF, Dimethyl fumarate] the “plasma concentration (final level)” value ([1]; pure drug 1 mg/0.2 mL, group III) was “non-detectable quantities”, the “time after which plasma concentration falls” value ([1]; pure drug 2 mg/0.2 mL, Group I) was 150 h and the “inflammatory reaction at physical inspection” value (rat subcutaneous tissue) was “highest inflammation”.
